# Measurements reported in paper PMC9420947, “^131I-Caerin 1.1 and ^131I-Caerin 1.9 for the treatment of non-small-cell lung cancer” (Frontiers in Oncology, 2022).
# Like-named read-outs stand apart in the source and are kept apart here. No end group written: not given here.
# Experiments:
# [1] = Body weight of A549 tumor-bearing nude mice; type: in vivo, BALB/c female nude mice; details: intratumoral injection every other day, four injections, 8 μg peptide and/or 7.4 ×10^6 Bq, 3 days after the last injection, four mice per group
# Text: (§1) Specific pathogen–free (SPF) 4-6-week-old (adult) BALB/c female nude mice were purchased from Guangdong Medical Laboratory Animal Center. The animals were housed at the Animal Resource Center (First Affiliated Hospital of Guangdong Pharmaceutical University) under SPF conditions. No animal was sick or died during the study. Nude mice were sacrificed by cervical dislocation in accordance with the Animal Management Measures of the Ministry of Health of the People’s Republic of China (Document no.55, 2001). All experiments were approved and were done in accordance with the guidelines of the Animal Experiment Ethics Committee of the First Affiliated Hospital of Guangdong Pharmaceutical University (Ethics approval number: FAHGPU20160316).
# (§2) A total of 100 µl of A549 cells (1×10^6 cells) suspended in PBS were inoculated subcutaneously in the axillary area of nude mice to establish a subcutaneous xenograft model. Once the tumor was 3 to 4 mm long, the nude mice were used in the following experiment. A digital caliper (Mitutoyo, Japan, CD-15APX) was used to monitor tumor size every other day. Tumor volume was calculated according to the formula: volume = width^2 × length/2.
# (§3) To reduce the thyroid uptake of ^131I, all nude mice were fed 0.1% potassium iodide (Shanghai Macklin Biochemical Co., Ltd., China) for 3 days to block the thyroid before the experiment. […]
# A549 cells [2] = experiment: CCK-8 cell proliferation and cytotoxicity; type: cell-based, human; details: CCK-8, 20,000 KBq/ml, 24 hours, triplicate, mean ± SD
# Protocol: A549 cells were seeded in two 96-well plates at 5×10^3 cells (100 µl) per well and cultured for 24 hours at 5% CO2 and 37°C. The ^131I-Caerin 1.1, ^131I-Caerin 1.9, and Na-^131I solutions were added to a final concentration of 2500, 5000, 10,000, or 20,000 KBq/ml. In the corresponding plates for Caerin 1.1 and Caerin 1.9, the drug concentration was 3.29, 6.95, 14.29, or 30.72 µg/ml. The experiment was done in triplicate and included three control (drug-free) groups. The cells were cultured for another 24 hours. Next, 10 µl of CCK-8 solution (DOJINDO, Japan) was added to each well, and then the cells were cultured in the dark for 4-6 hours. The absorbance at 450 nm was measured in an enzyme-linked immunosorbent assay plate reader, and GraphPad Prism v9.3.0 was used to calculate the cell survival rate.
# A549 cells [3] = experiment: Cell elution (retention); type: cell-based, human; details: 24 h incubation, wash, then 24 hours in serum-free medium, 1.85 ×10^5Bq per well, γ count, triplicate, mean ± SD
# Protocol: A549 cells were seeded in four 24-well plates at 5×10^4 cells (500 µl) per well and cultured for 24 hours. The experiment was done in triplicate and included a positive-control well. The supernatant was discarded, 0.5 ml of serum-free medium was added to each well, and then ^131I-Caerin 1.1, ^131I-Caerin 1.9, or free ^131I was added (1.85 ×10^5Bq or 2 µl per well). After incubation for 24 hours, the supernatant was discarded, the cells were washed twice with PBS, 0.5 ml of serum-free medium was added to each well, and the cells were incubated for another 2, 4, 6, or 24 hours. For the positive control, the supernatant was collected in a tube. For the experimental groups, the supernatant was discarded, the cells were washed twice with PBS, and 200 µl of trypsin was added to each well. After digestion, the cells were washed three times with PBS and then collected in a tube to measure the radioactivity count. GraphPad Prism v9.3.0 was used to calculate the drug retention rate.
# [4] = system: A549 xenograft NSCLC tumors; experiment: A549 subcutaneous xenograft in nude mice, tumor growth; type: in vivo, BALB/c female nude mice; details: intratumoral injection every other day, four injections, 8 μg peptide and/or 7.4 ×10^6 Bq, 3 days after the last injection, four mice per group
# Text: as §1, §2, §3
# A549 cells [5] = experiment: Cell uptake; type: cell-based, human; details: 24 hours, serum-free medium, 1.85 ×10^5Bq per well, γ count, triplicate, mean ± SD
# Protocol: A549 cells were seeded in four 24-well plates (Coring, USA) at 5×10^4 cells (500 µl) per well. The experiment was done in triplicate and included a positive-control well. After the cells were cultured in an incubator for 24 hours, the supernatant was discarded, 0.5 ml of serum-free medium was added to each well, and ^131I-Caerin 1.1 or ^131I-Caerin 1.9 and Na-^131I solution (1.85 ×10^5Bq or 2 µl per well) were added. After the cells were incubated for 2, 4, 6, or 24 hours, the cells were removed from the incubator. For the positive control, the supernatant was collected in a tube. For the experimental groups, the supernatant was discarded, and the cells were washed twice with PBS. Next, 200 µl of trypsin (GIBCO, USA) was added to each well. After digestion, the cells were washed three times with PBS and then collected in a tube to measure their radioactivity count. GraphPad Prism v9.3.0 was used to calculate the drug binding rate.
# A549 cells [6] = type: cell-based, human; details: MTT; for survival rate of A549 cells: overnight, triplicate, mean ± SD
# Protocol: The NSCLC cell line A549 was from the Stem Cell Bank of the Chinese Academy of Sciences. The medium of A549 cells contained 89% RPMI medium 1640 (GIBCO, USA), 10% heat-inactivated fetal bovine serum (Coring, USA), and 1% penicillin-streptomycin solution (GIBCO, USA). The cells were incubated in an incubator (Thermo, USA) at 37°C in 5% CO2.
# A total of 500 mg of 3-(4,5-dimethylthiazol-2-yl)-2,5-diphenyl tetrazolium bromide (MTT) powder (Sigma-Aldrich, USA) was dissolved in 100 ml of PBS to a final concentration of 5 mg/ml (0.5% MTT). The solution was stored in the dark at -20°C. A549 cells in the exponential growth phase were seeded in 96-well plates (Coring, USA) at 5×10^3 cells (100 µl) per well and then incubated at 37°C in 5% CO2 for 24 hours. Different concentrations of P3, Caerin 1.1, and Caerin 1.9 were added to the 96-well plates to reach final concentrations of 1, 5, 10, 15, 20, 25, 30, and 40 μg/ml. The experiment was done in triplicate and included control wells. The cells were cultured overnight. Once the drug’s effect was visible under the microscope, 10 µl of MTT solution was added to each well, and the cells were cultured for another 4 hours. Next, the supernatant was carefully aspirated, 150 µl of dimethyl sulfoxide solution (Sigma-Aldrich, USA) was added to each well, and the 96-well plates were placed on a shaker at low speed for 10 minutes. The absorbance at 570 nm was measured in an enzyme-linked immunosorbent assay plate reader (Thermo Scientific, USA). GraphPad Prism v9.3.0 was used calculate the half-maximal inhibitory concentration (IC50) of each drug and the survival rate (%).
Molecule,body weight at the time of sacrifice [1],survival rate of A549 cells (A549 cells [2]),binding rate after elution (A549 cells [3]),tumor volume at the time of sacrifice [4],tumor weight after sacrifice [4],uptake rate by A549 cells (A549 cells [5]),survival rate of A549 cells (A549 cells [6]; 10 μg/ml),survival rate of A549 cells (A549 cells [6]; 15 μg/ml),survival rate of A549 cells (A549 cells [6]; 20 μg/ml),survival rate of A549 cells (A549 cells [6]; 25 μg/ml),"IC50 on A549 cells (A549 cells [6]; 1-40 μg/ml, GraphPad Prism)"
"[131I-].[Na+] [Na-^131I, reference compound]",17.99 ± 0.50 g,71.56% ± 9.83%,4.97% ± 0.59%,186.30 ± 19.69 mm^3,0.147 ± 0.009 g,0.67 ± 0.08%,–,–,–,–,–
GLFGVLGSIAKHVLPHVVPVIAEKL-NH2 [Caerin 1.9],–,–,–,–,–,–,74.20% ± 3.57%,72.65% ± 0.76%,36.43% ± 4.85%,20.43% ± 1.92%,17.46 µg/mL
